Data as given in patent US10865191B2, “Heterocyclic compounds useful as modulators of TNF alpha” (BRISTOL-MYERS SQUIBB COMPANY, priority 2015, dated 2020).

Biological target: TNFα (Homo sapiens, UniProt P01375)
Assay: TNF induced HEK-Blue assay (NF-kB-driven secreted alkaline phosphatase reporter)
Format: cell-based
Details: TNF induced HEK-Blue assay IC50 value, TNFα 0.5 ng/mL, HEK-Blue-CD40L cells, 18 h
Summary of the method: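 HEK-Blue-CD40L cells (NF-kB-driven SEAP reporter), 20,000/well, added after 30 min pre-incubation of compound (0.004–25 μM final) with TNFα 0.5 ng/mL final at 37 °C; 18 h incubation. SEAP read with QUANTI-Blue at 620 nm; IC50 from 4-parameter logistic fit, normalized to unstimulated and stimulated DMSO controls.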

Chain of TNFα (P01375 77-233 limits assumed): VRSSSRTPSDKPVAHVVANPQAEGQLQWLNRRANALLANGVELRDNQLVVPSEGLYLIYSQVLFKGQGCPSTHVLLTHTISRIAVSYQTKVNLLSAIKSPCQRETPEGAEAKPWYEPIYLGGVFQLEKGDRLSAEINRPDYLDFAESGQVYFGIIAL

Compound	IC50 [nM]
C[C@@H](Nc1c(Cl)cnc2ccc(-c3cnc(N4CCN(CC(=O)O)CC4)nc3)cc12)c1ccccc1F [Example 285, (R)-2-(4-(5-(3-chloro-4-((1-(2-fluorophenyl)ethyl)amino)quinolin-6-yl)pyrimidin-2-yl)piperazin-1-yl)acetic acid]	< 1000

Same assay, conditions: TNFα 0.5 ng/mL, HEK-Blue-CD40L cells, 18 h; read-out: TNF induced HEK-Blue assay IC50 value

Compound	IC50 [nM]
Cc1nc2ccc(-c3cnc(C(C)(C)O)nc3)cc2c(N[C@H](C)c2cc(N)ccc2F)c1Cl [Example 360, (R)-2-(5-(4-((1-(5-amino-2-fluorophenyl)ethyl)amino)-3-chloro-2-methylquinolin-6-yl)pyrimidin-2-yl)propan-2-ol]	< 1000
CC(Nc1c(Cl)cnc2cc(F)c(-c3ccc(C(O)CO)cc3)cc12)c1ccccc1F (centres unmarked) [Example 256, 1-(4-(3-chloro-7-fluoro-4-((1-(2-fluorophenyl)ethyl)amino)quinolin-6-yl)phenyl)ethane-1,2-diol]	< 1000
C[C@@H](Nc1c(Cl)cnc2ccccc12)c1cc(-c2ccc(N(C)C)nc2)ccc1F [Example 506, (R)-3-chloro-N-(1-(5-(6-(dimethylamino)pyridin-3-yl)-2-fluorophenyl)ethyl) quinolin-4-amine]	< 1000
C[C@@H](Nc1c(Cl)cnc2ccc(-c3cnc(C4(O)CCCC4)nc3)cc12)c1ccccc1F [Example 120, (R)-1-(5-(3-chloro-4-((1-(2-fluorophenyl)ethyl)amino)quinolin-6-yl)pyrimidin-2-yl)cyclopentan-1-ol]	< 1000
CCNCc1ccc(-c2ccc3ncc(Cl)c(N[C@H](C)c4ccccc4F)c3c2)cc1 [Example 29, (R)-3-chloro-6-(4-((ethylamino)methyl)phenyl)-N-(1-(2-fluorophenyl)ethyl)quinolin-4-amine]	1000 to 10000
Cc1nc2cc(F)c(-c3cnc(C(C)(C)O)nc3)nc2c(N[C@H](C)c2cccc(C#N)c2)c1Cl [Example 589, (R)-3-(1-((3-chloro-7-fluoro-6-(2-(2-hydroxypropan-2-yl)pyrimidin-5-yl)-2-methyl-1,5-naphthyridin-4-yl)amino)ethyl)benzonitrile]	< 1000
CC(C)(O)c1ncc(-c2ccc3ncc(Cl)c(NCc4ccc(OC(F)F)cc4)c3c2)cn1 [Example 148, 2-(5-(3-chloro-4-((4-(difluoromethoxy)benzyl)amino)quinolin-6-yl)pyrimidin-2-yl)propan-2-ol]	1000 to 10000
Cc1nc2ccc(-c3cnc(C(C)(C)O)nc3)cc2c(N[C@H](C)c2cc(C3=CCCC3)ccc2F)c1Cl [Example 333, (R)-2-(5-(3-chloro-4-((1-(5-(cyclopent-1-en-1-yl)-2-fluorophenyl)ethyl)amino)-2-methylquinolin-6-yl)pyrimidin-2-yl)propan-2-ol]	< 1000
C[C@@H](Nc1c(Cl)cnc2ccc(-c3ccc(CN4CCC4)cc3)cc12)c1ccccc1F [Example 30, (R)-6-(4-(azetidin-1-ylmethyl)phenyl)-3-chloro-N-(1-(2-fluorophenyl)ethyl)quinolin-4-amine]	10000 to 25000
Cc1nc2ccc(-c3cnc(C(C)(C)O)nc3)cc2c(N[C@@H](c2cc(C(O)CO)ccc2F)C(F)F)c1Cl (mixture of isomers) [Example 402, 1-(3-((S)-1-((3-chloro-6-(2-(2-hydroxypropan-2-yl)pyrimidin-5-yl)-2-methylquinolin-4-yl)amino)-2,2-difluoroethyl)-4-fluorophenyl)ethane-1,2-diol]	< 1000
Cc1nc2ccc(-c3cnc(C(C)(C)O)nc3)cc2c(N[C@H](C)c2cc(-c3cc[nH]n3)ccc2F)c1Cl [Example 336, (R)-2-(5-(3-chloro-4-((1-(2-fluoro-5-(1H-pyrazol-3-yl)phenyl)ethyl)amino)-2-methylquinolin-6-yl)pyrimidin-2-yl)propan-2-ol]	< 1000
CC1Cc2ccccc2N1Nc1c(Cl)cnc2ccc(-c3cnc(C(C)(C)O)nc3)cc12 (racemic) [Example 48, 2-(5-(3-chloro-4-((2-methylindolin-1-yl)amino)quinolin-6-yl)pyrimidin-2-yl)propan-2-ol]	< 1000
C[C@@H](Nc1c(Cl)cnc2ccc(-c3cnc(C(C)(C)O)nc3)cc12)c1cc(Cl)ncc1F [Example 53, (R)-2-(5-(3-chloro-4-((1-(2-chloro-5-fluoropyridin-4-yl)ethyl)amino)quinolin-6-yl)pyrimidin-2-yl)propan-2-ol]	1000 to 10000
Cc1ncc(-c2ccc(F)c([C@@H](C)Nc3c(Cl)c(C)nc4ccccc34)c2)cn1 [Example 534, (R)-3-chloro-N-(1-(2-fluoro-5-(2-methylpyrimidin-5-yl)phenyl)ethyl)-2-methylquinolin-4-amine]	< 1000
Cc1nc2ccc(-c3cnc(C(C)(C)O)nc3)cc2c(N[C@H](C)c2cc(OCC(=O)O)ccc2F)c1Cl [Example 439, (R)-2-(3-(1-((3-chloro-6-(2-(2-hydroxypropan-2-yl)pyrimidin-5-yl)-2-methylquinolin-4-yl)amino)ethyl)-4-fluorophenoxy)acetic acid]	< 1000
Cc1ccnc(C(C)Nc2c(Cl)cnc3ccc(-c4ccc(C(C)(C)O)cc4)cc23)n1 (racemic) [Example 178, 2-(4-(3-chloro-4-((1-(4-methylpyrimidin-2-yl)ethyl)amino)quinolin-6-yl)phenyl)propan-2-ol]	< 1000
C[C@@H](Nc1c(Cl)cnc2cc(F)c(-c3cnc(C(C)(C)O)nc3)nc12)c1cc(C(O)CO)ccc1F (stereo partly drawn) [Example 504, 1-(3-((R)-1-((3-chloro-7-fluoro-6-(2-(2-hydroxypropan-2-yl)pyrimidin-5-yl)-1,5-naphthyridin-4-yl)amino)ethyl)-4-fluorophenyl)ethane-1,2-diol]	< 1000
Cc1ccncc1-c1ccc(F)c([C@@H](C)Nc2c(Cl)cnc3ccccc23)c1 [Example 529, (R)-3-chloro-N-(1-(2-fluoro-5-(4-methylpyridin-3-yl)phenyl)ethyl)quinolin-4-amine]	< 1000
CC(Nc1c(Cl)cnc2cc(F)c(-c3cnc(C(C)(O)CO)nc3)cc12)c1ccccc1F (centres unmarked) [Example 254, 2-(5-(3-chloro-7-fluoro-4-((1-(2-fluorophenyl)ethyl)amino)quinolin-6-yl)pyrimidin-2-yl)propane-1,2-diol]	< 1000

Second part, the compound after the results:

IC50 [nM]	Compound
< 1000	C[C@@H](Nc1c(Cl)cnc2ccc(-c3cnc(C(C)(C)O)nc3)cc12)c1cc(-c2nnn(C)n2)ccc1F [Example 413, (R)-2-(5-(3-chloro-4-((1-(2-fluoro-5-(2-methyl-2H-tetrazol-5-yl)phenyl)ethyl)amino)quinolin-6-yl)pyrimidin-2-yl)propan-2-ol]
10000 to 25000	COc1cccc([C@@H](C)Nc2c(Cl)cnc3ccccc23)c1 [Example 462, (R)-3-chloro-N-(1-(3-methoxyphenyl)ethyl)quinolin-4-amine]
< 1000	Cc1nc2ccc(-c3cnc(C(C)(C)O)nc3)cc2c(N[C@H](C)c2cc(-c3cn[nH]c3)ccc2F)c1Cl [Example 335, (R)-2-(5-(3-chloro-4-((1-(2-fluoro-5-(1H-pyrazol-4-yl)phenyl)ethyl)amino)-2-methylquinolin-6-yl)pyrimidin-2-yl) propan-2-ol]
< 1000	C[C@@H](Nc1c(Cl)cnc2ccc(-c3cnc(C(C)(C)O)nc3)cc12)c1cc(-c2cnccn2)ccc1F [Example 341, (R)-2-(5-(3-chloro-4-((1-(2-fluoro-5-(pyrazin-2-yl)phenyl)ethyl)amino)quinolin-6-yl)pyrimidin-2-yl)propan-2-ol]
10000 to 25000	C[C@@H](Nc1c(Cl)cnc2ccc(-c3ccc(CO)cc3)cc12)c1ccccc1F [Example 220, (R)-(4-(3-chloro-4-((1-(2-fluorophenyl)ethyl)amino)quinolin-6-yl)phenyl)methanol]
< 1000	C=Cc1ccc(F)c([C@H](Nc2c(Cl)cnc3cc(F)c(-c4cnc(C(C)(C)O)nc4)nc23)C(F)F)c1 [Example 495, (S)-2-(5-(7-chloro-8-((2,2-difluoro-1-(2-fluoro-5-vinylphenyl)ethyl)amino)-3-fluoro-1,5-naphthyridin-2-yl)pyrimidin-2-yl)propan-2-ol]
< 1000	CC(Nc1c(Cl)cnc2cc(F)c(-c3ccc(C4(CO)CC4)cc3)cc12)c1ccccc1F (racemic) [Example 264, (1-(4-(3-chloro-7-fluoro-4-((1-(2-fluorophenyl)ethyl)amino)quinolin-6-yl)phenyl)cyclopropyl)methanol]
1000 to 10000	C[C@@H](Nc1c(Cl)c(C(=O)Nc2cccnc2)nc2ccc(-c3cnc(C(C)(C)O)nc3)cc12)c1cc(C#N)ccc1F [Example 385, (R)-3-chloro-4-((1-(5-cyano-2-fluorophenyl)ethyl)amino)-6-(2-(2-hydroxypropan-2-yl)pyrimidin-5-yl)-N-(pyridin-3-yl)quinoline-2-carboxamide]
1000 to 10000	Cc1ccc(C)c(Nc2c(Cl)c(CO)nc3ccc(-c4ccc(C#N)nc4)cc23)c1 [Example 40, 5-(3-chloro-4-((2,5-dimethylphenyl)amino)-2-(hydroxymethyl)quinolin-6-yl)picolinonitrile]
1000 to 10000	C[C@@H](Nc1c(Cl)cnc2ccc(-c3cnc(C(C)(C)O)nc3)cc12)c1cc(C#Cc2ccccc2)ccc1F [Example 411, (R)-2-(5-(3-chloro-4-((1-(2-fluoro-5-(phenylethynyl)phenyl)ethyl)amino)quinolin-6-yl)pyrimidin-2-yl)propan-2-ol]
< 1000	COc1ccc(F)c([C@@H](C)Nc2c(Cl)c(C)nc3ccc(-c4cnc(C(C)(C)O)nc4)cc23)c1 [Example 326, (R)-2-(5-(3-chloro-4-((1-(2-fluoro-5-methoxyphenyl)ethyl)amino)-2-methylquinolin-6-yl)pyrimidin-2-yl)propan-2-ol]
< 1000	C[C@@H](Nc1c(Cl)cnc2ccc(-c3cnc(C(C)(C)O)nc3)cc12)c1cc(-c2c[nH]nn2)ccc1F [Example 419, (R)-2-(5-(3-chloro-4-((1-(2-fluoro-5-(1H-1,2,3-triazol-4-yl)phenyl)ethyl)amino)quinolin-6-yl)pyrimidin-2-yl)propan-2-ol]
